{"source": "paper PMC12410356", "about": "(International Journal for Parasitology: Drugs and Drug …, 2025)", "key": {"[1]": {"tested_on": "E. multilocularis GL cells", "test": "Germinal layer cell viability assay (CellTiter-Glo)", "type": "cell-based, Echinococcus multilocularis", "description": "The isolation of GL cells was conducted according to ([Kaethner et al., 2023]). Briefly, conditioned DMEM (cDMEM) was prepared prior to isolation. For the preparation of cDMEM, 1 × 10^6 RH cells and 10 × 10^6 RH cells incubated in DMEM supplemented with 10 % FBS, penicillin (100 U/mL), streptomycin (100 μg/mL) and tetracycline (5 μg/mL) for six or four days, respectively, at 37 °C under a humid, 5 % CO2 atmosphere. The supernatant of each was mixed 1:1 and sterile filtrated, resulting in cDMEM. Metacestode vesicles of at least 6 months of age were washed with PBS, incubated in distilled H2O for 2.5 min and subsequently mechanically disrupted. The resulting pellet was resuspended in 7 vol of pre-warmed 0.05 % Trypsin/0.02 % EDTA and incubated at 37 °C for 30 min. GL cells were extracted from the laminated layer by vigorous shaking followed by filtration through a 30 μm mesh (Sefar AG, Heiden, Switzerland) and separated from calcareous corpuscles by short centrifugation at 50×g for 30 s at RT. The isolated cells were centrifuged for 10 min at 600×g and RT and the pellet was resuspended in cDMEM. The cell suspension was diluted 1:100 in PBS to measure the OD600. An OD600 value of 0.1 of this dilution was defined as one arbitrary unit (AU) per μL of the undiluted cell suspension corresponding to 0.97 ± 0.11 μg of total protein for the GL cells as measured via Pierce™ bicinchoninic acid (BCA) Protein Assay Kit according to the manufacturer's protocol (Fisher Scientific AG, Reinach, Switzerland). 1′000 AU per 5 mL of cDMEM were cultured at 37 °C overnight under a humid nitrogen atmosphere. The next day, 2′000 AU of GL cells were combined and further cultured for 3 h at 37 °C under a humid nitrogen atmosphere before they were used for further experiments.\nTo assess effects of compounds on the cell viability of isolated E. multilocularis GL cells, the protocol was applied as previously described ([Kaethner et al., 2023]). In short, 15 AU of GL cells were distributed into each well of a black 384-well plate. Compounds dissolved in DMSO (alexidine, carbendazim, ESI-09, MMV1581545 and oxfendazole) were added to final concentrations ranging from 80 to 0.31 μM (1:2 serial dilution) and the cells were cultured for 5 days at 37 °C under a humid, microaerobic atmosphere (85 % N2, 10 % CO2, 5 % O2). DMSO with the respective concentration was used as a solvent control. Viability was measured using the CellTiter-Glo® kit. Luminescence was measured using a HIDEX Sense microplate reader. Measurements were done in quadruplicates and represented as relative viability of the DMSO controls. IC50 values were calculated in R applying the five parameter logistic model for three independent experiments ([Ritler et al., 2020])."}, "[2]": {"tested_on": "mice", "set-up": "method as in Almahariq et al., 2013; Maeda et al., 2020", "conditions": "ref Almahariq et al., 2013, Maeda et al., 2020, cited from earlier work"}, "[3]": {"tested_on": "cancer cell lines", "set-up": "method as in Maeda et al., 2020", "conditions": "ref Maeda et al., 2020; cited from earlier work"}, "[4]": {"tested_on": "E. multilocularis GL cells", "test": "Seahorse mito cell stress test, oxygen consumption rate", "type": "cell-based, Echinococcus multilocularis", "conditions": "titration in GL cells", "description": "To measure mitochondrial respiration in E. multilocularis GL cells, Seahorse “mito cell stress test” was performed according to the manual for Seahorse XFp Extracellular Flux Analyzer (Agilent Technologies, Basel, Switzerland) with some adaptations ([Gu et al., 2021]; [Rufener et al., 2018]). Seahorse XFp 8-well plates were hydrated and incubated together with Seahorse XF calibrant solution at 37 °C in a non-CO2 incubator overnight the day before the actual experiment. […] Oligomycin was used at a final concentration of 1.5 μM. […] The experiment was repeated three times independently with two technical replicates."}, "[5]": {"tested_on": "E. multilocularis metacestode vesicles", "test": "Transmission electron microscopy of treated metacestode vesicles", "type": "cell-based, Echinococcus multilocularis", "conditions": "1 μM, 24 h", "description": "To investigate induction of ultrastructural changes in E. multilocularis metacestode vesicles treated with ESI-09, transmission electron microscopy (TEM) was performed. Metacestode vesicles were treated with either 1 μM ESI-09 or the solvent control DMSO with subsequent incubation for 24 h at 37 °C under a humid, 5 % CO2 atmosphere. Processing and imaging was done as previously described ([Kaethner et al., 2023])."}, "[6]": {"tested_on": "E. multilocularis metacestode vesicles", "test": "Phosphoglucose isomerase (PGI) release assay (damage-marker release) on metacestode vesicles", "type": "cell-based, Echinococcus multilocularis", "conditions": "for PGI d5 (relative PGI release) / PGI d12 (relative PGI release): 10 μM; for PGI d5 (relative PGI release): 5 days; for PGI d12 (relative PGI release): 12 days"}, "[7]": {"tested_on": "E. multilocularis metacestode vesicles", "test": "Metacestode vesicle viability assay (ATP, CellTiter-Glo)", "type": "cell-based, Echinococcus multilocularis", "conditions": "Echinococcus multilocularis, 288 h; for viability at 10 µM: 12 days, read-out: Viability d12 (relative viability)", "description": "Viability was assessed after 12 days using the same metacestode vesicles as for the PGI release assay. Triton X-100 was added to each well to a final concentration of 0.1 %. Subsequently the metacestode vesicles were broken mechanically and 50 μL of the supernatant was mixed with 50 μL of CellTiter-Glo® buffer (Promega, Dübendorf, Switzerland). Measurements were performed on a HIDEX Sense microplate reader."}, "[8]": {"conditions": "confirmation screen, triplicates, mean"}, "[9]": {"conditions": "overview screen, singlets, relative to 0.1 % Triton X-100, DMSO subtracted"}}, "note": "Where two headings read alike, the source gives them in different places.", "data": [{"molecule": "CC(C)(C)c1cc(C(=O)/C(C#N)=N/Nc2cccc(Cl)c2)no1", "note": "[ESI-09]", "values": [{"measurement": "effect on GL cell viability (in words)", "setting": "[1]; 80 to 0.31 μM, 5 days", "result": "highly effective"}, {"measurement": "IC50", "setting": "[1]; Echinococcus multilocularis, 120 h, 5 days incubation, microaerobic, mean ± SD of three independent experiments", "result": "2.45 ± 0.86", "unit": "µM"}, {"measurement": "tolerability in mice (in words)", "setting": "[2]; daily 10 mg/kg intraperitoneal for 21 days", "result": "well-tolerated"}, {"measurement": "tolerability in mice (in words)", "setting": "[2]; daily 50 mg/kg oral gavage up to 26 days", "result": "well-tolerated"}, {"measurement": "optimal uncoupling concentration in cancer cell lines", "setting": "[3]", "result": 2, "unit": "µM"}, {"measurement": "optimal (maximal) uncoupling concentration", "setting": "[4]", "result": 2, "unit": "µM"}, {"measurement": "ultrastructural changes in metacestode vesicles (in words)", "setting": "[5]", "result": "induced distinct ultrastructural changes"}, {"measurement": "ultrastructural changes in mitochondria (in words)", "setting": "[5]", "result": "no ultrastructural changes in mitochondria were seen"}, {"measurement": "IC50", "setting": "[6]; Echinococcus multilocularis, 288 h, 12 days incubation, mean ± SD of three independent experiments", "result": "6.06 ± 3.18", "unit": "µM"}, {"measurement": "PGI d5 (relative PGI release)", "setting": "[6]; [8]", "result": 6.08, "unit": "%"}, {"measurement": "PGI d12 (relative PGI release)", "setting": "[6]; [8]", "result": 38.44, "unit": "%"}, {"measurement": "detachment of the GL from the laminated layer, visible from concentration", "setting": "[6]; microscopy pictures, 12 days incubation", "result": "≥ 13.3", "unit": "µM"}, {"measurement": "PGI d5 (relative PGI release)", "setting": "[6]; [9]", "result": 33.0513, "unit": "%"}, {"measurement": "PGI d12 (relative PGI release)", "setting": "[6]; [9]", "result": 64.0941, "unit": "%"}, {"measurement": "viability at 10 µM", "setting": "[7]; [8]", "result": 10.7, "unit": "%"}, {"measurement": "viability at 10 µM", "setting": "[7]; overview screen, singlets, relative to DMSO control", "result": 7.77, "unit": "%"}, {"measurement": "IC50", "setting": "[7]; 12 days incubation, mean ± SD of three independent experiments", "result": "2.09 ± 0.56", "unit": "µM"}]}]}
